From patent US7408071B2, “N-aryl pyrrolidine derivatives as beta-secretase inhibitors” (Bristol-Myers Squibb Company, priority 2006, dated 2008)

target: T1, BACE1 enzyme (Homo sapiens, UniProt P56817); assay: Radioligand displacement assay with a radiolabeled BACE inhibitor on HEK293-9B.A1 cell homogenate; assay type: binding; settings: displacement of 1 nM tritiated radioligand, HEK293-9B.A1 homogenate, pH 5.0, 1.5 hr at 25° C.; read-out: Activity Rating (activity based on IC50 values)
T1 construct: The HEK293-9B.A1 cell line, which overexpresses the BACE1 enzyme, was derived from HEK293 cells; endogenous in cells; washed 48,000xg membrane pellet/homogenate
T1 sequence (P56817 46-501): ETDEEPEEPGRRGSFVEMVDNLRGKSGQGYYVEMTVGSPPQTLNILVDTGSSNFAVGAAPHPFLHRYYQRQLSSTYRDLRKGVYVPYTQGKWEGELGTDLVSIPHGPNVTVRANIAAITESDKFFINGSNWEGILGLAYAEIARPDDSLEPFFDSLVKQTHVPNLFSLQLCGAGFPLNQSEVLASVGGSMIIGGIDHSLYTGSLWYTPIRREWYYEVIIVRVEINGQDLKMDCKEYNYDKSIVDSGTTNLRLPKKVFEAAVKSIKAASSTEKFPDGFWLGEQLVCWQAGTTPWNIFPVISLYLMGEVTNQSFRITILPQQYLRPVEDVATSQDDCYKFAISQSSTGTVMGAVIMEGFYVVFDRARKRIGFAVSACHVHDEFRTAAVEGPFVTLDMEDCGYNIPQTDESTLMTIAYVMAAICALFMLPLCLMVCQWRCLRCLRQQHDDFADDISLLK
Source text: There are a number of methods by which inhibitors of the BACE enzyme can be identified experimentally. The enzyme can be obtained from membrane samples from natural tissues or cultured cells or can be expressed recombinantly in a host cell by well known methods of molecular biology. The whole enzyme or a portion thereof can be expressed, for example, in bacterial, insect or mammalian cells to obtain a catalytically active enzyme species. The enzymatic activity and/or ligand binding capability of the enzyme can be assessed within these membrane samples, or the enzyme can be purified to varying extents. As an illustrative example, the nucleic acid sequence encoding the pro and catalytic domains of human BACE can be appended on the 5′ end with an untranslated and signal sequence from the gene for acetylcholinesterase, and on the 3′ end with a sequence encoding a poly-histidine tag. This cDNA can then be expressed in Drosophila melanogaster S2 cells in which the signal and pro sequences of the transcribed/translated protein are removed by cellular proteases and the catalytic domain, appended by a C-terminal poly-histidine tag, is secreted out into the cellular medium. The enzyme can then be purified from the culture medium by nickel affinity chromatography by methods well known to those trained in the art [Mallender, W. et al., (2001) “Characterization of recombinant, soluble beta-secretase from an insect cell expression system.” Mol. Pharmacol. 59: 619-626]. Similar strategies for expressing and purifying various forms of BACE in bacterial, mammalian and other cell types would be known to one skilled in the art. A preferred method for determining the potency of a test compound in binding to the BACE enzyme is by monitoring the displacement of a suitable radioligand.
Radioligand displacement assays with a radiolabeled BACE inhibitor (WO 2004 013098, compound 3, where the methoxy group is substituted for C(^3H)3) were carried out using standard methods (Keen, M. (1999) in Receptor Binding Techniques (Walker, J. M. ed) p. 106 Humana Press, Totowa, N.J.). The HEK293-9B.A1 cell line, which overexpresses the BACE1 enzyme, was derived from HEK293 cells (Simmons, N. L. (1990) A cultured human renal epithelioid cell line responsive to vasoactive intestinal peptide. Exp. Physiol. 75:309-19.) by RAGE™ (Harrington, J. J. et al. (2001) Creation of genome-wide protein expression libraries using random activation of gene expression. Nat. Biotechnol. 19:440-5.; U.S. Pat. Nos. 6,410,266 and 6,361,972). T225 flask cultures of HEK293-9B.A1 were grown to 80% confluency in DMEM supplemented with 2 mM L-glutamine, 10 μg/ml penicillin, 10 μg/ml streptomycin, 3 μg/ml puromycin, 100 nM methotrexate, and 10% fetal bovine serum (Invitrogen, Carlsbad, Calif.), harvested, and resuspended at 2×10^8 cells per 10 ml of lysis buffer consisting of 50 mM HEPES pH 7.0 containing a protease inhibitor cocktail of AEBSF 104 μM, aprotinin 80 nM, leupeptin 2 μM, bestatin 4 μM, pepstatin A 1.5 μM, and E-64 1.4 μM (0.1% of protease inhibitor cocktail P8340, Sigma-Aldrich, St. Louis, Mo.) at 4° C. The resuspended cells were homogenized using a Polytron (Brinkman, Westbury, N.Y.) at setting 6 for 10 sec., then centrifuged at 48,000×g for 10 min. The resulting pellet was washed by repeating the resuspension, homogenization and centrifugation steps. The final pellet was resuspended in buffer at 4° C. to yield a total protein concentration of 5 mg/ml, then aliquots were frozen in liquid nitrogen for further storage at −70° C. Immediately before carrying out a binding assay, an aliquot of cell homogenate was thawed and diluted to a concentration of 100 μg/ml in assay buffer consisting of 50 mM HEPES pH 5.0 and 0.1% CHAPSO. […]

Row | Compound | IC50 [nM]
1 | CC(=O)Nc1c(Cl)cc(CN/C(N)=N/C(=O)C2C3CC3CN2c2ccccc2)cc1Cl (stereo not drawn) [Example 34, cis-N-((4-Acetamido-3,5-dichlorobenzylamino)(amino)methylene)-3-phenyl-3-azabicyclo[3.1.0]hexane-2-carboxamide] | 100 to 1000
2 | COc1ccc(N2CCC[C@H]2C(=O)/N=C(\N)NCc2cc(Cl)c(NC(C)=O)c(Cl)c2)cc1 [Example 5, (S)—N-((4-Acetamido-3,5-dichlorobenzylamino)(amino)methylene)-1-(4-methoxyphenyl)pyrrolidine-2-carboxamide] | 100 to 1000
3 | N/C(=N\C(=O)[C@@H]1CCCN1c1ccccc1)NCc1cc(Cl)c(N)c(Cl)c1 [Example 1, (S)—N-((4-Amino-3,5-dichlorobenzylamino)(amino)methylene)-1-phenylpyrrolidine-2-carboxamide] | 100 to 1000
4 | CN(C)CC(=O)Nc1c(Cl)cc(CN/C(N)=N/C(=O)[C@@H]2CCCN2c2ccccc2)cc1Cl [Example 3, (S)—N-((3,5-Dichloro-4-(2-(dimethylamino)-acetamido)-benzylamino)(amino)methylene)-1-phenylpyrrolidine-2-carboxamide] | 100 to 1000
5 | COc1ccc(N2CCC[C@H]2C(=O)/N=C(\N)NCc2cc(Cl)c(NC(=O)CN(C)C)c(Cl)c2)cc1 [Example 6, (S)—N-((3,5-Dichloro-4-(2-(dimethylamino)acetamido)benzylamino)-(amino)methylene)-1-(4-methoxyphenyl)pyrrolidine-2-carboxamide] | 100 to 1000
6 | CO[C@@H]1C[C@@H](C(=O)/N=C(\N)NCc2cc(Cl)c(NC(=O)CN(C)C)c(Cl)c2)N(c2ccccc2)C1 [Example 33, (2S,4R)—N-(Amino(3,5-dichloro-4-(2-(dimethylamino)acetamido)benzylamino)methylene)-4-methoxy-1-phenylpyrrolidine-2-carboxamide] | < 100
7 | COc1ccc(N2CCC[C@H]2C(=O)/N=C(\N)NCc2cc(Cl)c(N)c(Cl)c2)cc1 [Example 4, (S)—N-((4-Amino-3,5-dichlorobenzylamino)(amino)methylene)-1-(4-methoxyphenyl)pyrrolidine-2-carboxamide] | 100 to 1000
8 | CN(C)CC(=O)Nc1c(Cl)cc(CN/C(N)=N/C(=O)[C@H]2CCCN2c2ccc(C(F)(F)F)cc2)cc1Cl [Example 31, (R)—N-(Amino(3,5-dichloro-4-(2-(dimethylamino)acetamido)-benzylamino)methylene)-1-(4-(trifluoromethyl)phenyl)pyrrolidine-2-carboxamide] | < 100
9 | CC(=O)Nc1c(Cl)cc(CN/C(N)=N/C(=O)[C@@H]2CCCN2c2ccccc2)cc1Cl [Example 2, (S)—N-((4-Acetamido-3,5-dichlorobenzylamino)(amino)methylene)-1-phenylpyrrolidine-2-carboxamide] | 100 to 1000
10 | CO[C@@H]1C[C@@H](C(=O)/N=C(\N)NCc2cc(Cl)c(NC(C)=O)c(Cl)c2)N(c2ccccc2)C1 [Example 32, (2S,4R)—N-((4-Acetamido-3,5-dichlorobenzylamino)(amino)-methylene)-4-methoxy-1-phenylpyrrolidine-2-carboxamide] | < 100
